From patent publication US20190054090A1, “COMBINATION OF A BTK INHIBITOR AND A CHECKPOINT INHIBITOR FOR TREATING CANCERS” (Gilead Sciences, Inc., priority 2015, published 2019)

How the values were obtained:
[1] = test system: A20 cell line (ATCC), mouse B-cell lymphoma; assay: in vivo anti-tumor activity in A20 syngeneic tumors; details: first study, Compound A1 46 mg/kg/day in diet (0.037%), 4H2 i.p. 20 mg/kg day 0 then 10 mg/kg every 6 days, n=9
Procedure: This example evaluated in vivo anti-tumor activity of a BTK inhibitor Compound A1 in combination with an anti-PD-1 antibody (4H2), (Kitayama Labes Co., Ltd) in syngeneic tumors.
A20 cell line (ATCC), mouse B-cell lymphoma, were maintained in lymphocyte growth medium (LGM): RPMI-1640 supplemented with 10% FBS, 1% penicillin-streptomycin. Fresh 1% (vol) Monothioglycerol was also added to the culture. The cell suspension of 2×10^6 to 4×10^6 cells per dish was cultured at 37° C., 5% CO2. The cells were suspended in PBS (5×10^7 cells/mL).
A20-bearing BALB/c mice were subcutaneously injected (5×10^6 cells per animal). Day 6 after cell injection (day 0), mice having the tumor volume of about were 200 mm^3 were randomized into four groups (n=9 per group) for treatment with vehicle (CRF-1), Compound A1, 4H2, or Compound A1 and 4H2. Mice were fed diets containing of Compound A1. 4H2 was administered intraperitoneally at 20 mg/kg on day 0 followed by 10 mg/kg every 6 days; the average dose of Compound A1 was 46 mg/kg/day (CRF-1 at 0.037%) in the first and second studies or 15 mg/kg/day (CRF-1 at 0.012%) in the second study. During the studies, tumor volume (long axis of tumor×(short axis of tumor)^2×0.5), tumor growth inhibition rate (TGI, as compared to tumors of the vehicle control group), temporal changes in tumor volume, body weight, or food intake were determined. The studies were terminated when tumors reached a maximum of 3,000 mm^3. […]

[2] = body weight of A20-bearing BALB/c mice; assay type: in vivo; details: first study, Compound A1 46 mg/kg/day in diet (0.037%), 4H2 i.p. 20 mg/kg day 0 then 10 mg/kg every 6 days, n=9
Procedure: A20-bearing BALB/c mice were subcutaneously injected (5×10^6 cells per animal). Day 6 after cell injection (day 0), mice having the tumor volume of about were 200 mm^3 were randomized into four groups (n=9 per group) for treatment with vehicle (CRF-1), Compound A1, 4H2, or Compound A1 and 4H2. Mice were fed diets containing of Compound A1. 4H2 was administered intraperitoneally at 20 mg/kg on day 0 followed by 10 mg/kg every 6 days; the average dose of Compound A1 was 46 mg/kg/day (CRF-1 at 0.037%) in the first and second studies or 15 mg/kg/day (CRF-1 at 0.012%) in the second study. During the studies, tumor volume (long axis of tumor×(short axis of tumor)^2×0.5), tumor growth inhibition rate (TGI, as compared to tumors of the vehicle control group), temporal changes in tumor volume, body weight, or food intake were determined. The studies were terminated when tumors reached a maximum of 3,000 mm^3.
In the second study, the effects of Compound A1 at 15 mg/kg/day (CRF-1 at 0.012%) and 46 mg/kg/day (CRF-1 at 0.037%) were evaluated. Similar protocols as described above were used. The study (n=12 per group) was terminated at day 17.

[3] = test system: L1210 cell line (JCRB), mouse lymphocytic leukemia; assay: in vivo anti-tumor activity in L1210 syngeneic tumors; details: Compound A1 54 mg/kg/day in diet (0.037%), 4H2 i.p. 20 mg/kg day 0 then 10 mg/kg every 6 days, n=8
Procedure: (§1) This example evaluated in vivo anti-tumor activity of a BTK inhibitor (Compound A1) in combination with an anti-PD-1 antibody (4H2) in syngeneic tumors. Similar protocols as described above were used with L1210 cell line (JCRB), mouse lymphocytic leukemia.
(§2) L1210-bearing DBA-2 mice were subcutaneously injected (5×10^5 cells/animal). Mice were randomized into four groups (n=8 per group) for treatment with vehicle (CRF-1), Compound A1, 4H2 (10 mg/kg every 6 days), or Compound A1 and 4H2. Mice were fed diets containing of Compound A1. 4H2 was administered intraperitoneally at 20 mg/kg on day 0 followed by 10 mg/kg every 6 days. The average dose of Compound A1 was 54 mg/kg/day (CRF-1 at 0.037%).

[4] = body weight of L1210-bearing DBA-2 mice; assay type: in vivo; details: Compound A1 54 mg/kg/day in diet (0.037%), 4H2 i.p. 20 mg/kg day 0 then 10 mg/kg every 6 days, n=8
Procedure: as §1, §2

B-cell lymphoma A20 = details: previously reported, Sagiv-Barfi et al. PNAS 2015; cited from earlier work

CC#CC(=O)N1CC[C@@H](n2c(=O)n(-c3ccc(Oc4ccccc4)cc3)c3c(N)ncnc32)C1 [Compound A1, (R)-6-amino-9-(1-(but-2-ynoyl)pyrrolidin-3-yl)-7-(4-phenoxyphenyl)-7H-purin-8(9H)-one]
average tumor volume (±standard error) ([1]; day 0): 168 (±11) mm^3 | tumor growth inhibition rate (TGI, as compared to tumors of the vehicle control group) ([1]; day 0): 0.8% | average tumor volume (±standard error) ([1]; day 2): 248 (±18) mm^3 | tumor growth inhibition rate (TGI, as compared to tumors of the vehicle control group) ([1]; day 2): 14% | average tumor volume (±standard error) ([1]; day 6): 331 (±32) mm^3 | tumor growth inhibition rate (TGI, as compared to tumors of the vehicle control group) ([1]; day 6): 23% | average tumor volume (±standard error) ([1]; day 9): 632 (±61) mm^3 | tumor growth inhibition rate (TGI, as compared to tumors of the vehicle control group) ([1]; day 9): −12% | average tumor volume (±standard error) ([1]; day 12): 805 (±104) mm^3 | tumor growth inhibition rate (TGI, as compared to tumors of the vehicle control group) ([1]; day 12): 9% | average tumor volume (±standard error) ([1]; day 15): 1408 (±157) mm^3 | tumor growth inhibition rate (TGI, as compared to tumors of the vehicle control group) ([1]; day 15): 8% | average tumor volume (±standard error) ([1]; day 19): 2553 (±272) mm^3 | tumor growth inhibition rate (TGI, as compared to tumors of the vehicle control group) ([1]; day 19): 10% | average body weight (±standard error) ([2]; day 0): 19 (±0.4) g | average body weight (±standard error) ([2]; day 2): 19 (±0.4) g | average body weight (±standard error) ([2]; day 6): 20 (±0.3) g | average body weight (±standard error) ([2]; day 9): 20 (±0.3) g | average body weight (±standard error) ([2]; day 12): 21 (±0.3) g | average body weight (±standard error) ([2]; day 15): 21 (±0.3) g | average body weight (±standard error) ([2]; day 19): 22 (±0.4) g | average tumor volume (±standard error) ([3]; day 0): 0 (±0) mm^3 | average tumor volume (±standard error) ([3]; day 4): 71 (±16) mm^3 | tumor growth inhibition rate (TGI) ([3]; day 4): 8% | average tumor volume (±standard error) ([3]; day 7): 247 (±34) mm^3 | tumor growth inhibition rate (TGI) ([3]; day 7): 30% | average tumor volume (±standard error) ([3]; day 10): 874 (±108) mm^3 | tumor growth inhibition rate (TGI) ([3]; day 10): 7% | average tumor volume (±standard error) ([3]; day 12): 1851 (±226) mm^3 | tumor growth inhibition rate (TGI) ([3]; day 12): −0.7% | average tumor volume (±standard error) ([3]; day 14): 3279 (±321) mm^3 | tumor growth inhibition rate (TGI) ([3]; day 14): −0.2% | average body weight (±standard error) ([4]; day 0): 15 (±0.4) g | average body weight (±standard error) ([4]; day 4): 16 (±0.4) g | average body weight (±standard error) ([4]; day 7): 16 (±0.4) g | average body weight (±standard error) ([4]; day 10): 17 (±0.5) g | average body weight (±standard error) ([4]; day 12): 18 (±0.4) g | average body weight (±standard error) ([4]; day 14): 19 (±0.5) g

C=CC(=O)N1CCC[C@@H](n2nc(-c3ccc(Oc4ccccc4)cc3)c3c(N)ncnc32)C1 [ibrutinib, 1-[(3R)-3-[4-Amino-3-(4-phenoxyphenyl)-1H-pyrazolo[3,4-d]pyrimidin-1-yl]piperidin-1-yl]prop-2-en-1-one]
sensitivity of B-cell lymphoma A20 to the Btk inhibitor (B-cell lymphoma A20): would not be sensitive
